Measurements taken from PubChem BioAssay (NCI).
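Here, GI50 denotes the concentration required for 50% inhibition of growth. TGI marks complete inhibition of growth.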

Assays:
Assay in all cases: DTP human tumour cell line panel, 384-well format
[1] = tested on: UACC-62 melanoma
[2] = tested on: HOP-92 NSCLC
[3] = tested on: LOX IMVI melanoma
[4] = tested on: NCI-H322M lung
[5] = tested on: SK-MEL-28 melanoma
[6] = tested on: HCT-15 colon
[7] = tested on: A498 renal
[8] = tested on: HCC-2998 colon
[9] = tested on: HL-60(TB) leukemia
[10] = tested on: KM12 colon
[11] = tested on: NCI-H23 lung
[12] = tested on: TK-10 renal
[13] = tested on: UACC-257 melanoma
[14] = tested on: PC-3 prostate
[15] = tested on: NCI-H460 NSCLC
[16] = tested on: OVCAR-4 ovarian
[17] = tested on: MDA-MB-468 breast
[18] = tested on: SF-268 CNS
[19] = tested on: MDA-MB-435 melanoma
[20] = tested on: SK-OV-3 ovarian
[21] = tested on: SF-295 CNS
[22] = tested on: CCRF-CEM leukemia
[23] = tested on: HOP-62 NSCLC
[24] = tested on: SR leukemia
[25] = tested on: A549 NSCLC
[26] = tested on: IGROV1 ovarian
[27] = tested on: T-47D breast
[28] = tested on: COLO 205 colon
[29] = tested on: MOLT-4 leukemia
[30] = tested on: SK-MEL-5 melanoma
[31] = tested on: SW-620 colon
[32] = tested on: OVCAR-8 ovarian
[33] = tested on: U251 glioblastoma
[34] = tested on: OVCAR-5 ovarian
[35] = tested on: HS 578T breast
[36] = tested on: ACHN renal
[37] = tested on: CAKI-1 renal
[38] = tested on: HT29 colon
[39] = tested on: 786-0 renal
[40] = tested on: NCI-H226 lung
[41] = tested on: MCF7 breast
[42] = tested on: M14 melanoma
[43] = tested on: SNB-75 CNS
[44] = tested on: HCT-116 colon
[45] = tested on: NCI-H522 lung
[46] = tested on: DU-145 prostate
[47] = tested on: SN12C renal
[48] = tested on: MDA-MB-231 breast
[49] = tested on: MALME-3M melanoma
[50] = tested on: RXF 393 renal
[51] = tested on: UO-31 renal
[52] = tested on: SF-539 CNS
[53] = tested on: SNB-19 CNS
[54] = tested on: NCI/ADR-RES ovarian
[55] = tested on: EKVX NSCLC
[56] = tested on: RPMI-8226 leukemia
[57] = tested on: BT-549 breast
[58] = tested on: OVCAR-3 ovarian

SMILES: Nc1cccc2c1C(=O)N(C1CCC(=O)NC1=O)C2=O (stereo not given)
- GI50 [1]: > 100 µM
- TGI [1]: > 100 µM
- GI50 [2]: > 100 µM
- TGI [2]: > 100 µM
- TGI [3]: > 100 µM
- GI50 [4]: > 100 µM
- TGI [4]: > 100 µM
- GI50 [5]: > 100 µM
- TGI [5]: > 100 µM
- GI50 [6]: > 100 µM
- TGI [6]: > 100 µM
- GI50 [7]: > 100 µM
- TGI [7]: > 100 µM
- GI50 [8]: > 100 µM
- TGI [8]: > 100 µM
- GI50 [9]: > 100 µM
- TGI [9]: > 100 µM
- GI50 [10]: > 100 µM
- TGI [10]: > 100 µM
- GI50 [11]: > 100 µM
- TGI [11]: > 100 µM
- GI50 [12]: > 100 µM
- TGI [12]: > 100 µM
- GI50 [13]: > 100 µM
- TGI [13]: > 100 µM
- GI50 [14]: > 100 µM
- TGI [14]: > 100 µM
- GI50 [15]: > 100 µM
- TGI [15]: > 100 µM
- GI50 [16]: > 100 µM
- TGI [16]: > 100 µM
- GI50 [17]: > 100 µM
- TGI [17]: > 100 µM
- GI50 [18]: > 100 µM
- TGI [18]: > 100 µM
- GI50 [19]: > 100 µM
- TGI [19]: > 100 µM
- GI50 [20]: > 100 µM
- TGI [20]: > 100 µM
- GI50 [21]: > 100 µM
- TGI [21]: > 100 µM
- GI50 [22]: > 100 µM
- TGI [22]: > 100 µM
- GI50 [23]: > 100 µM
- TGI [23]: > 100 µM
- GI50 [24]: > 100 µM
- TGI [24]: > 100 µM
- GI50 [25]: > 100 µM
- TGI [25]: > 100 µM
- GI50 [26]: > 100 µM
- TGI [26]: > 100 µM
- GI50 [27]: > 100 µM
- TGI [27]: > 100 µM
- GI50 [28]: > 100 µM
- TGI [28]: > 100 µM
- GI50 [29]: > 100 µM
- TGI [29]: > 100 µM
- GI50 [30]: > 100 µM
- TGI [30]: > 100 µM
- GI50 [31]: > 100 µM
- TGI [31]: > 100 µM
- GI50 [32]: > 100 µM
- TGI [32]: > 100 µM
- GI50 [33]: > 100 µM
- TGI [33]: > 100 µM
- GI50 [34]: > 100 µM
- TGI [34]: > 100 µM
- GI50 [35]: > 100 µM
- TGI [35]: > 100 µM
- GI50 [36]: > 100 µM
- TGI [36]: > 100 µM
- GI50 [37]: > 100 µM
- TGI [37]: > 100 µM
- GI50 [38]: > 100 µM
- TGI [38]: > 100 µM
- GI50 [39]: > 100 µM
- TGI [39]: > 100 µM
- GI50 [40]: > 100 µM
- TGI [40]: > 100 µM
- GI50 [41]: > 100 µM
- TGI [41]: > 100 µM
- GI50 [42]: > 100 µM
- TGI [42]: > 100 µM
- GI50 [43]: > 100 µM
- TGI [43]: > 100 µM
- GI50 [44]: > 100 µM
- TGI [44]: > 100 µM
- GI50 [45]: > 100 µM
- TGI [45]: > 100 µM
- GI50 [46]: > 100 µM
- TGI [46]: > 100 µM
- GI50 [47]: > 100 µM
- TGI [47]: > 100 µM
- GI50 [48]: > 100 µM
- TGI [48]: > 100 µM
- GI50 [49]: > 100 µM
- TGI [49]: > 100 µM
- GI50 [50]: > 100 µM
- TGI [50]: > 100 µM
- GI50 [51]: > 100 µM
- TGI [51]: > 100 µM
- GI50 [52]: > 100 µM
- TGI [52]: > 100 µM
- GI50 [53]: > 100 µM
- TGI [53]: > 100 µM
- GI50 [54]: > 100 µM
- TGI [54]: > 100 µM
- GI50 [55]: > 100 µM
- TGI [55]: > 100 µM
- GI50 [56]: 22.9 µM
- TGI [56]: > 100 µM
- GI50 [57]: > 100 µM
- TGI [57]: > 100 µM
- GI50 [58]: > 100 µM
- TGI [58]: > 100 µM
